Assay results published in US20240148733A1, “COMBINATION THERAPY” (Genentech, Inc., priority 2021, published 2024).

Experiments:
[1] = test system: H2122 cells (KRAS G12C); assay: Drug combination assay (CellTiter-Glo cell viability); assay type: cell-based; conditions: six days, 384-wells
Procedure: Cells were seeded in either 96-well or 384-well plates 16 h before treatment at a density of 1000 cells per well. Then, cells were treated with varying concentrations of compound(s) as indicated in FIGS. 1-8 (384-wells) and FIGS. 10-105 (96-wells), either a single agent or in combination, for six days. The relative number of viable cells was estimated using CellTiter-Glo Luminescent Cell Viability Assay (Promega, G7573). Total luminescence was detected on a Wallac Multilabel Reader (Perkin-Elmer).

[2] = test system: cells resistant to Compound K2; assay: Soft agar 3D culture; assay type: cell-based; conditions: combination with Compound K2 (a KRAS inhibitor); 11-14 day incubation; Gelcount cell counting
Procedure: Two heat blocks (1× without blocks, 1× with 50 ml tube block) were heated to 44° C. Flat-bottom 96-well non-tissue culture treated assay plates (Falcon 353219) and fluid reservoirs were kept at 37° C. 2×RPMI+20% FCS (which can be stored at 4° C.) were made and warmed to 37° C. 100 ml 1.2% agarose and 0.58% agarose solution was made by adding […] sterile water to a sterile 500 ml bottle and then carefully adding 1.2 gram/0.58 gram agarose (using normal out-of-the-hood weight), avoiding bubbles, foam, and sticking of undiluted agarose to walls as much as possible. The solution was then microwaved until fully dissolved and bubbling. The solution was then cooled for 10-15 minutes at room temperature and incubated at 37° C. The solution can be stored at room temperature for future use.
For each plate, 2 ml 1.2% agarose was mixed with 2 ml 2×RPMI+20% FCS in a 50 ml tube in a heat block by swirling the tube (minimizing pipetting up and down, as this cools the agarose too much). By double-tap (pipet is pushed in completely, liquid is taken up, then pushed out until first stop only), 40 μl 1.2% agarose/96-well was added, excluding edge 96-wells. The agarose was set at “waterpas” level and stored at 4° C. until further use. 1.2% agarose-containing plate was placed on ice for 10 minutes before plating cells.
Cells were trypsinized and counted. […]

C=CC(=O)Nc1cc2c(c(-c3ccc(C(C)C)cc3)c1)OCC2 [Compound T2, N-(7-(4-isopropylphenyl)-2,3-dihydrobenzofuran-5-yl)acrylamide]
% inhibition of H2122 cells (KRAS G12C) ([1]; combination with Compound K1 (a KRAS inhibitor)): sensitizes cells resistant to Compound K1
% inhibition of H2122 cells (KRAS G12C) ([1]; combination with Compound K2 (a KRAS inhibitor)): sensitizes cells resistant to Compound K2
soft agar 3D culture growth [2]: sensitizes cells resistant to Compound K2
